pIC50: −log10 of the molar value.
Columns and labels:
Type in all cases: functional
[1] = species: Homo sapiens; test: Concentration required for maximal in vitro inhibition of aggregation of human platelet rich plasma (hPRP)
[2] = system: Canis familiaris; test: Percent inhibition of aggregation of platelet rich plasma at a dose of 0.025 mg/kg, iv, in canine model at 24 hr; conditions: Canis lupus familiaris
[3] = system: Canis familiaris; test: Percent inhibition of aggregation of platelet rich plasma at a dose of 0.025 mg/kg, iv, in canine model at 5 hrs; conditions: Canis lupus familiaris
[4] = system: Canis familiaris; test: Percent inhibition of aggregation of platelet rich plasma at a dose of 0.025 mg/kg, iv, in canine model after 30 min; conditions: Canis lupus familiaris, 0.5 h
[5] = system: Canis familiaris; test: Percent inhibition of ex vivo platelet aggregation of rich plasma at a dose of 0.025 mg/kg, iv, in canine model at 5 hrs; conditions: Canis lupus familiaris

| Compound | pIC50 [1] | further results |
| --- | --- | --- |
| COc1ccccc1CNC(=N)c1ccc(C2=NOC(CC(=O)NCCC(=O)O)C2)cc1 (centres undefined) | 7.49 |  |
| CCCCCNC(=N)c1ccc(C2=NOC(CC(=O)NCCC(=O)O)C2)cc1 (centres undefined) | 6.52 |  |
| COc1ccccc1CNC(=N)c1ccc(C2=NO[C@@H](CC(=O)NC[C@H](NS(=O)(=O)c3c(C)noc3C)C(=O)O)C2)cc1 | 7.26 |  |
| CCNC(=N)c1ccc(C2=NO[C@@H](CC(=O)NC[C@H](NS(=O)(=O)c3cccc(C)c3)C(=O)O)C2)cc1 | 7.29 |  |
| CCCNC(=N)c1ccc(C2=NOC(CC(=O)NCCC(=O)O)C2)cc1 (centres undefined) | 6.92 |  |
| N/C(=N/Cc1ccccc1)c1ccc(C2=NOC(CC(=O)NCCC(=O)O)C2)cc1 (centres undefined) | 6.70 |  |
| COc1ccccc1CNC(=N)c1ccc(C2=NO[C@@H](CC(=O)NC[C@H](NS(=O)(=O)c3ccccc3C)C(=O)O)C2)cc1 | 7.40 | inhibition in vivo at 0.025 mg/kg [2]: 80% |
| CCCCNC(=N)c1ccc(C2=NOC(CC(=O)NCCC(=O)O)C2)cc1 (centres undefined) | 7.70 |  |
| N/C(=N/Cc1cccc(F)c1)c1ccc(C2=NOC(CC(=O)NCCC(=O)O)C2)cc1 (centres undefined) | 7.92 |  |
| Cc1noc(C)c1S(=O)(=O)N[C@@H](CNC(=O)C[C@H]1CC(c2ccc(C(=N)NCc3cccc(F)c3)cc2)=NO1)C(=O)O | 7.26 |  |
| CCCCNC(=N)c1ccc(C2=NO[C@@H](CC(=O)NC[C@H](NS(=O)(=O)c3ccccc3C)C(=O)O)C2)cc1 | 7.80 |  |
| N/C(=N/Cc1ccccc1)c1ccc(C2=NO[C@@H](CC(=O)NCCC(=O)O)C2)cc1 | 7.06 |  |
| CCNC(=N)c1ccc(C2=NOC(CC(=O)NCCC(=O)O)C2)cc1 (centres undefined) |  | inhibition in vivo at 0.025 mg/kg [3]: 20%; inhibition in vivo at 0.025 mg/kg [4]: 70% |
| CCCCNC(=N)c1ccc(C2=NO[C@@H](CC(=O)NC[C@H](NC(=O)OCCCC)C(=O)O)C2)cc1 | 7.21 |  |
| CCNC(=N)c1ccc(C2=NO[C@@H](CC(=O)NC[C@H](NS(=O)(=O)c3ccccc3C)C(=O)O)C2)cc1 | 7.37 | inhibition in vivo at 0.025 mg/kg [5]: 40% |
| Cc1cccc(S(=O)(=O)N[C@@H](CNC(=O)C[C@H]2CC(c3ccc(C(=N)N)cc3)=NO2)C(=O)O)c1 | 7.30 |  |
| CC(C)CCNC(=N)c1ccc(C2=NOC(CC(=O)NCCC(=O)O)C2)cc1 (centres undefined) | 5.89 |  |
| N=C(N)c1ccc(C2=NOC(CC(=O)NCCC(=O)O)C2)cc1 (centres undefined) | 6.62 |  |
| N=C(N)c1ccc(C2=NO[C@@H](CC(=O)NCCC(=O)O)C2)cc1 | 7.22 |  |
| Cc1ccccc1S(=O)(=O)N[C@@H](CNC(=O)C[C@H]1CC(c2ccc(C(=N)N)cc2)=NO1)C(=O)O | 7.27 |  |
| CCCCOC(=O)N[C@@H](CNC(=O)C[C@H]1CC(c2ccc(C(=N)NCC)cc2)=NO1)C(=O)O | 7.09 |  |
